Earlier results, collected in patent US5414009A, “Azabicyclo substituted oxa- or thia-diazole compounds” (Novo Nordisk A/S, priority 1992, dated 1995).
Where two headings read alike, the source gives them in different places.

Experiments:
[1] = in vivo
[2] = system: muscarinic
[3] = system: muscarinic cholinergic
[4] = system: muscarinic receptor in the CNS; details: for Kd: read-out: affinity of sites labelled by 3H-Oxo
[5] = system: M1-sites; details: M1-site, pirenzepine sensitive site
[6] = system: M2-sites

COC(=O)C1=CCCN(C)C1 [Arecoline, methyl 1-methyl-1,2,5,6-tetrahydropyridine-3-carboxylate]
biological half life [1]: very short biological half life | separation between central and peripheral muscarinic effects [2]: small separation between central and peripheral muscarinic effects | cholinergic agonism [3]: cholinergic agonist

C[N+](C)(C)CC#CCN1CCCC1=O [Compound 3H-Oxo]
preference for agonist domains of the receptors ([4]; CNS): with a preference for agonist domains of the receptors | Kd ([4]; first of three sites (high affinity)): 1.8 nM | Kd ([4]; second of three sites (medium affinity)): 20 nM | Kd ([4]; third of three sites): 3000 nM

CN1CCN(CC(=O)N2c3ccccc3C(=O)Nc3cccnc32)CC1 [Pirenzepine, pirenzepine, [N-methyl-^3 H]]
selective binding to subtype of muscarinic receptors [5]: binds selectively to subtype of muscarinic receptors | interaction with M2-sites [6]: also interact with M2
